According to patent US20210386367A1, “DEVICES AND SYSTEMS FOR GASTROINTESTINAL MICROBIOME DETECTION AND MANIPULATION” (Progenity, Inc., priority 2018, published 2021):
Converted amounts (≈) assume the structure as drawn. Read-outs that look alike come from different tables or passages of the source.

Legend:
[1] = system: E. coli spontaneous mutants; conditions: E. coli ATCC 25922; CLSI QC range shown in parentheses; cited from earlier work
B. fragilis ATCC 25285 [2] = assay: Time-kill assay; assay type: cell-based, Bacteroides fragilis; conditions: 2×, 4×, 8× MIC; 2, 6, 24, 48 hr
B. ovatus = assay: Spontaneous mutation frequency and mutation prevention concentration (MPC); assay type: cell-based; conditions: B. ovatus MMX 3503
Source text: As used herein, “spontaneous mutation frequency” refers to the rate at which mutations arise in a bacterium that can lead to resistance to develop to an antimicrobial agent. “Mutation prevention concentration” or “MPC” refers to the lowest concentration of antimicrobial agent above which the selective proliferation of resistant mutants is expected to occur only rarely.

Enterobacteriaceae = conditions: cited from earlier work
[3] = in vivo, cited from earlier work
B. fragilis ATCC 25285 [4] = conditions: B. fragilis MMX 123 ATCC 25285; cited from earlier work
Streptococcus spp. = assay: Spontaneous mutation frequency assay; assay type: cell-based; conditions: for Spontaneous Mutation Frequency: selection at 4× and 8× MIC
Protocol: Initial values of the MIC were determined by agar dilution in accordance with guidelines from the Clinical and Laboratory Standards Institute (CLSI; (1) “Methods for Dilution Antimicrobial Susceptibility Tests for Bacteria That Grow Aerobically; Approved Standard; 11th ed.,” CLSI standard M07, 2018; (2) “Methods for Antimicrobial Susceptibility Testing of Anaerobic Bacteria; Approved Standard—Eighth Edition,” CLSI document M11-A8, 2012.).
The agar plates were prepared by mixing a ratio of 1.0 mL of concentrated drug to 49.0 mL of the appropriate molten (47° C.) agar; the drug-supplemented agar was mixed, poured into 15-by-150 mm petri dishes and allowed to solidify and dry at room temperature prior to inoculation. […] Each plate was allowed to cool at room temperature for at least 1 hr.
The isolates were streaked onto the appropriate agar medium and incubated for 20 hr (aerobes) or 48 hr (Bacteroides under anaerobic conditions). Using a sterile swab, several well-isolated colonies were removed and resuspended in sterile saline at a heavy cell density. Each plate was inoculated with 0.5 mL of the cell suspension (each test concentration was inoculated in duplicate). The target inoculum for each spontaneous mutation plate was 10^9-10 CFU. In addition, a portion of the inoculum from each isolate was enumerated by making dilutions, spreading on agar and counting colonies.
Once the inoculum was absorbed into the agar, the plates were incubated at 35° C. Aerobes were examined at 24 and 48 hr, and resulting colonies were counted. Bacteroides were incubated anaerobically for 48-72 hr in the anaerobe chamber and colonies were counted.
Colony counts from plates used to enumerate the initial inoculum density and from the resulting spontaneous mutation frequency test plates were determined. The inoculum size was calculated as CFU inoculated per plate. The spontaneous mutation frequency was calculated using the counts from duplicate spontaneous mutation assay test plates as follows:
If there were no colonies on the antibiotic selection plates, the spontaneous mutation frequency was reported as less than the frequency observed with one colony to indicate that the spontaneous mutation frequency was less than the limit of detection (one CFU). […] The mutation prevention concentration (MPC) was reported as the lowest concentration for which no mutants were selected.

[5] = system: Bacteroides spp. (B. fragilis ATCC 25285, B. vulgatus, B. ovatus MMX 3503); conditions: cited from earlier work
S. agalactiae ATCC 13813 = assay: Broth microdilution MIC (time-kill study); assay type: cell-based, Streptococcus agalactiae
E. coli MMX 1312 = assay: Broth microdilution MIC (time-kill study); assay type: cell-based, Escherichia coli
B. ovatus MMX 3503 = assay: Time-kill assay; assay type: cell-based, Bacteroides ovatus; conditions: for time-kill kinetics outcome (bactericidal = ≥3 log reduction in CFU per mL): 2×, 4×, 8× MIC, 2, 6, 24, 48 hr
[6] = system: Streptococcus spp. (S. pneumoniae ATCC 49619, S. pyogenes ATCC 49399, S. agalactiae ATCC 13813); conditions: cited from earlier work
[7] = system: Bacteroides spp. spontaneous mutants; conditions: B. fragilis ATCC 25285; CLSI QC range shown in parentheses; cited from earlier work
E. coli ATCC 25922 = conditions: cited from earlier work
[8] = system: Clostridium spp. clinical isolates; assay: MIC distribution against clinical isolates; assay type: cell-based; conditions: 10 Clostridium spp. isolates
Source text: (n=4 C. sporogenes, n=2 C. ramosum and n=4 C. innocuum) clinical isolates (μg/mL).
As used herein, “minimum inhibitory concentration” or “MIC” refers to the lowest concentration of an antimicrobial agent, for example, an antimicrobial agent as described herein, required to inhibit the growth of an organism. […] “MIC90” represents the MIC value at which ≥90% of the strains within a test population are inhibited; the 90th percentile.
Many susceptibility testing methods are known in the art and can be used as described herein (see, e.g., Jorgensen and Ferraro (2009) Clinical Infectious Diseases 49:1749-1755; and Maurer et al. (2017) Infectious Disease Reports 9:6839; the entire contents of each of the foregoing are incorporated herein by reference). For example, antimicrobial susceptibility can be determined using conventional culture based methods such as the broth or agar dilution test. In these dilution tests, the bacterial isolate of interest is inoculated onto different media that include serial dilutions of an antimicrobial agent, and incubated under appropriate conditions (e.g., overnight at 37° C.) to allow for growth to occur. Following the incubation period, the media is examined to determine bacterial growth. The lowest concentration of antibiotic that prevents growth represents the minimal inhibitory concentration (MIC). Broth dilution tests can be miniaturized and mechanized allowing for reproducibility and high throughput.

[9] = S. agalacttae ATCC 13813 (so in the source)
[10] = Streptococcus agalactiae, ATCC13813, broth microdilution, read-out: MIC
[11] = Escherichia coli, MMX1312, broth microdilution, read-out: MIC
[12] = rifaximin selection 4X MIC, 2 μg/mL
[13] = rifaximin selection 8X MIC, 4 μg/mL

Row | Molecule | MIC, CLSI QC range [1] | time-kill kinetics outcome (bactericidal = ≥3 log reduction in CFU per mL) (B. fragilis ATCC 25285 [2]) | % S (Enterobacteriaceae) | MIC50 (Enterobacteriaceae) | CLSI QC range (MIC) (B. fragilis ATCC 25285 [4]) | Spontaneous Mutation Frequency (Streptococcus spp.) | CLSI QC range (agar MIC) [5] | MIC (S. agalactiae ATCC 13813; [9]) | MIC (S. agalactiae ATCC 13813; [10]) | MIC (E. coli MMX 1312; E. coli MMX 1312) | MIC (E. coli MMX 1312; [11]) | time-kill kinetics outcome (bactericidal = ≥3 log reduction in CFU per mL) (B. ovatus MMX 3503) | CLSI QC range (agar MIC) [6] | MIC, CLSI QC range [7] | CLSI QC range (MIC) (E. coli ATCC 25922) | also measured
1 | C[C@@H](O)[C@H]1C(=O)N2C(C(=O)O)=C(S[C@@H]3CN[C@H](C(=O)N(C)C)C3)[C@H](C)[C@H]12 [meropenem] | (0.008-0.06) μg/mL | rapid bactericidal activity against this organism at 6, 24 and 48 hr at 8×MIC, 24 and 48 hr at 4×MIC and at 24 hr at 2×MIC | 98.3% | ≤0.12 µg/mL | (0.03-0.25)^1 μg/mL | ≤ 9.52×10^−10 | 0.03 to 0.25 µg/mL | 0.008 µg/mL (≈ 0.0209 µM) | 0.008 µg/mL (≈ 0.0209 µM) | 0.008 µg/mL (≈ 0.0209 µM) | 0.008 µg/mL (≈ 0.0209 µM) | bactericidal at 8×MIC at 6, 24 and 48 hr; at 4×MIC at 24 and 48 hr; and at 2×MIC at 24 hr with rebound growth at 48 hr | 0.03 to 0.25 µg/mL | (0.03-0.25)^1 μg/mL | (0.008-0.06)^1 μg/mL | MPC (B. ovatus): 0.5 µg/mL; Average Count (B. ovatus; selection 4X MIC, 0.5 μg/mL): 0 CFU; Count 1 (B. ovatus; selection 4X MIC, 0.5 μg/mL): 0 CFU; Count 2 (B. ovatus; selection 4X MIC, 0.5 μg/mL): 0 CFU; Spontaneous Mutation Frequency (B. ovatus; selection 4X MIC, 0.5 μg/mL): ≤1.05 × 10^−10; Average Count (B. ovatus; selection 8X MIC, 1 μg/mL): 0 CFU; Count 1 (B. ovatus; selection 8X MIC, 1 μg/mL): 0 CFU; Count 2 (B. ovatus; selection 8X MIC, 1 μg/mL): 0 CFU; Spontaneous Mutation Frequency (B. ovatus; selection 8X MIC, 1 μg/mL): ≤1.05 × 10^−10; Rat oral exposure (Dose) [3]: ~4%; colonies on selection plates (Streptococcus spp.): No Streptococcus spp. or Bacteroides spp. colonies were selected
2 | CN[C@H](CC(C)C)C(=O)N[C@H]1C(=O)N[C@@H](CC(N)=O)C(=O)N[C@H]2C(=O)N[C@H]3C(=O)N[C@H](C(=O)N[C@H](C(=O)O)c4cc(O)cc(O)c4-c4cc3ccc4O)[C@H](O)c3ccc(c(Cl)c3)Oc3cc2cc(c3O[C@@H]2O[C@H](CO)[C@@H](O)[C@H](O)[C@H]2O[C@H]2C[C@](C)(N)[C@H](O)[C@H](C)O2)Oc2ccc(cc2Cl)[C@H]1O [vancomycin, Vancomycin] |  |  |  |  |  |  |  |  |  |  |  |  |  |  |  | MIC (S. agalactiae ATCC 13813; Streptococcus agalactiae, ATCC13813, S. agalacttae ATCC 13813 (so in the source), read-out: MIC): 0.5 µg/mL (≈ 0.345 µM); MIC (E. coli MMX 1312; Escherichia coli, MMX1312, E. coli MMX 1312, read-out: MIC): > 16 µg/mL
3 | piperacillin/tazobactam [piperacillin-tazobactam] |  |  |  |  | (4-16) μg/mL |  |  | 0.06 µg/mL |  | 16/4 |  |  |  |  |  | 
4 | CO/N=C(\C(=O)N[C@@H]1C(=O)N2C(C(=O)O)=C(CSc3nc(=O)c(=O)[nH]n3C)CS[C@H]12)c1csc(N)n1 [ceftriaxone] | (0.03-0.12)^1 μg/mL |  | 87.5% | ≤1 µg/mL |  | ≤ 9.52×10^−10 | 32 to 128 µg/mL | 0.015 µg/mL (≈ 0.027 µM) | 0.015 µg/mL (≈ 0.027 µM) | 4 µg/mL (≈ 7.21 µM) | 4 µg/mL (≈ 7.21 µM) |  | 0.03 to 0.12 µg/mL |  | (0.03-0.12) μg/mL | Cumulative percentage of isolates inhibited at MIC ([8]; MIC 4 μg/mL): 40.0%; MIC90 (Enterobacteriaceae): 8 µg/mL (≈ 14.4 µM); Rat oral exposure lower than iv ([3]; 50 mg/kg): mg/kg (200-fold; Rat oral exposure (Dose) ([3]; 50 mg/kg): 0.9 μg*hr/mL at 50
5 | CO[C@H]1/C=C/O[C@@]2(C)Oc3c(C)c(O)c4c(O)c(c5c(nc6cc(C)ccn65)c4c3C2=O)NC(=O)/C(C)=C\C=C\[C@H](C)[C@H](O)[C@@H](C)[C@@H](O)[C@@H](C)[C@H](OC(C)=O)[C@@H]1C [rifaximin] |  | did not show evidence of killing |  |  |  | ≥ 2.77×10^−8 |  | 0.25 µg/mL (≈ 0.318 µM) |  | 8 µg/mL (≈ 10.2 µM) |  | rebounded to no-drug control levels at later time points |  |  |  | MFC (B. ovatus): >4 µg/mL; Average Count (B. ovatus; [12]): 34 CFU; Count 1 (B. ovatus; [12]): 31 CFU; Count 2 (B. ovatus; [12]): 37 CFU; Spontaneous Mutation Frequency (B. ovatus; [12]): 3.58 × 10^−9; Average Count (B. ovatus; [13]): 27 CFU; Count 1 (B. ovatus; [13]): 28 CFU; Count 2 (B. ovatus; [13]): 25 CFU; Spontaneous Mutation Frequency (B. ovatus; [13]): 2.84 × 10^−9; Cumulative percentage of isolates inhibited at MIC ([8]; MIC 8 μg/mL): 20.0%; Number of test isolates at MIC ([8]; MIC 8 μg/mL): 1; Spontaneous Mutation Frequency (Streptococcus spp.; listed as rifampin): ~10^−8; MIC (S. agalactiae ATCC 13813; broth microdilution): 0.25 µg/mL (≈ 0.318 µM); MIC (E. coli MMX 1312; broth microdilution): 8 µg/mL (≈ 10.2 µM); rapid killing (B. ovatus MMX 3503; 6 hr): ~2 log10 CFU
6 | Cc1ncc([N+](=O)[O-])n1CCO [MTZ] |  |  |  |  |  |  |  |  |  |  |  |  |  | (0.25-2) μg/mL |  | 
